Experimental data taken from patent US20240124504A1, “AROMATIC HETEROCYCLIC COMPOUND, AND PHARMACEUTICAL COMPOSITION AND APPLICATION THEREOF” (GT APEIRON THERAPEUTICS LIMITED, priority 2020, published 2024).
Read-outs that look alike come from different tables or passages of the source.

What was measured:
Format in all cases: biochemical
[1] = target: CDK7/cyclinH/MAT1 complex (Homo sapiens, UniProt P50613); assay: In-vitro enzymatic inhibitory activity testing, CDK7 inhibition assay (Caliper EZ Reader II); conditions: CDK7/cyclinH/MAT1 6 nM, 180 min at 27° C.
Method: (§1) CDK12/CyclinK was diluted in an assay buffer (80 mM MES PH 6.5, 0.01% Tween 20, 50 ug/mL BSA, 10 mM MgCl2) to afford a corresponding enzyme solution with the 2.4 concentration. A compound was dissolved in dimethyl sulfoxide (DMSO) at a concentration of 10 mM. […] 2 ul of a test compound solution was mixed with 5 ul of the enzyme solution; after incubation for 10 min, 5 ul of the polypeptide substrate and ATP mixed solution was added; incubation was carried out for 180 min at 27° C.; and then, the reaction was terminated by adding 4 uL of EDTA with a concentration of 120 mM to each sample. […] A CDK9/cyclinT1 complex (8 nM) and a “5-FAM-CDK9tide” peptide substrate (2 IM, synthetic fluorophore-labeled peptide with the following sequence: 5-FAM-GSRTPMY-NH2, wherein 5-FAM was as defined above and NH2 represented C-terminal amide) were used for a CDK9 inhibition assay. […] A CDK2/cyclinE1 complex (0.5 nM) and “5-FAM-CDK7tide” (2 μM) as defined above were used for CDK2 inhibition assay.
(§2) A reaction mixture was analyzed on Caliper EZ Reader II by electrophoretic separation of a fluorogenic substrate and a phosphorylated product. Data were calculated by using GraphPad Prism version 6.0, and IC50 values were adjusted and obtained by using a nonlinear regression model of a dose response curve.

CDK2/cyclinE1 complex = CDK2/cyclinE1 complex (Homo sapiens, UniProt P24941); assay: In-vitro enzymatic inhibitory activity testing, CDK2 inhibition assay (Caliper EZ Reader II); conditions: CDK2/cyclinE1 0.5 nM, 180 min at 27° C.
Method: CDK12/CyclinK was diluted in an assay buffer (80 mM MES PH 6.5, 0.01% Tween 20, 50 ug/mL BSA, 10 mM MgCl2) to afford a corresponding enzyme solution with the 2.4 concentration. […] A CDK9/cyclinT1 complex (8 nM) and a “5-FAM-CDK9tide” peptide substrate (2 IM, synthetic fluorophore-labeled peptide with the following sequence: 5-FAM-GSRTPMY-NH2, wherein 5-FAM was as defined above and NH2 represented C-terminal amide) were used for a CDK9 inhibition assay. […] A CDK2/cyclinE1 complex (0.5 nM) and “5-FAM-CDK7tide” (2 μM) as defined above were used for CDK2 inhibition assay.
as §2

CDK9/cyclinT1 complex = CDK9/cyclinT1 complex (Homo sapiens, UniProt P50750); assay: In-vitro enzymatic inhibitory activity testing, CDK9 inhibition assay (Caliper EZ Reader II); conditions: CDK9/cyclinT1 8 nM, 180 min at 27° C.
Method: as §1, §2

[2] = target: T1, CDK12 (aa686-1082)/cyclinK complex (Homo sapiens, UniProt Q9NYV4); assay: In-vitro enzymatic inhibitory activity testing, CDK12 inhibition assay (Caliper EZ Reader II); conditions: 180 min at 27° C.
T1 construct: A CDK12 (aa686-1082)/cyclinK complex (50 nM)
Method: An assay was carried out in a U-bottom 384-well plate (coming, 4512#), and the reaction temperature was 27° C. CDK7/CyclinH was diluted in an assay buffer (20 mM MES PH 6.75, 0.01% Tween 20, 50 ug/mL BSA, 6 mM MgCl2) to afford a corresponding enzyme solution with the 2.4× concentration. CDK2/CyclinE1 was diluted in an assay buffer (20 mM MES PH 6.75, 0.01% Tween 20, 50 ug/mL BSA, 6 mM MgCl2) to afford a corresponding enzyme solution with the 2.4× concentration. CDK9/CyclinT1 was diluted in an assay buffer (20 mM MES PH 6.75, 0.01% Tween 20, 50 ug/mL BSA, 10 mM MgCl2) to afford a corresponding enzyme solution with the 2.4× concentration. CDK12/CyclinK was diluted in an assay buffer (80 mM MES PH 6.5, 0.01% Tween 20, 50 ug/mL BSA, 10 mM MgCl2) to afford a corresponding enzyme solution with the 2.4 concentration. A compound was dissolved in dimethyl sulfoxide (DMSO) at a concentration of 10 mM. During use, the compound was diluted with DMSO into 10 concentration gradients from 25 nM to 500 uM, and respectively diluted by 8.3 folds in the assay buffer to afford a compound solution with a 6× concentration. A polypeptide substrate and ATP were diluted in the assay buffer to afford a polypeptide substrate and ATP mixed solution with a 2.4× concentration. 2 ul of a test compound solution was mixed with 5 ul of the enzyme solution; after incubation for 10 min, 5 ul of the polypeptide substrate and ATP mixed solution was added; incubation was carried out for 180 min at 27° C.; and then, the reaction was terminated by adding 4 uL of EDTA with a concentration of 120 mM to each sample. […]. Specifically, a CDK7/cyclinH/MAT1 complex (6 nM) and a “5-FAMCD K 7 tide” peptide substrate (2 μM, synthetic fluorophore-labeled peptide with the following sequence: 5-FAM-[…], wherein “5-FAM” refers to 5-carboxyfluorescein) were used for a CDK7 inhibition assay. A CDK9/cyclinT1 complex (8 nM) and a “5-FAM-CDK9tide” peptide substrate (2 IM, synthetic fluorophore-labeled peptide with the following sequence: 5-FAM-GSRTPMY-NH2, wherein 5-FAM was as defined above and NH2 represented C-terminal amide) were used for a CDK9 inhibition assay. A CDK12 (aa686-1082)/cyclinK complex (50 nM) and “5-FAM-CDK9tide” (2 μM) as defined above were used for a CDK12 inhibition assay. A CDK2/cyclinE1 complex (0.5 nM) and “5-FAM-CDK7tide” (2 μM) as defined above were used for CDK2 inhibition assay.
as §2

[3] = CDK12/cyclinK 50 nM, read-out: CDK12 IC50

T1 sequence (Q9NYV4 686-1082, species assumed): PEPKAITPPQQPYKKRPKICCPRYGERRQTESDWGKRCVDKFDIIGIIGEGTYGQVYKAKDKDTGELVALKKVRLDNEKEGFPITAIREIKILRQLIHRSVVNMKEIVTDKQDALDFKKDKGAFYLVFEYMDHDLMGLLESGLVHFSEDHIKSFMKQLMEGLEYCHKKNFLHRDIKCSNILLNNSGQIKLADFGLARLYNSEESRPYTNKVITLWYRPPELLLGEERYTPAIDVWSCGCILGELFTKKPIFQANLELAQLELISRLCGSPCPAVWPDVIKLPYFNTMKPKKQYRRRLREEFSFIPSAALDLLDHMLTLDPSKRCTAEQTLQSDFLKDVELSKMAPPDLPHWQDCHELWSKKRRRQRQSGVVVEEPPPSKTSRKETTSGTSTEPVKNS
T1 sequence (O75909 whole entry partner, species assumed, the tested form may be a part): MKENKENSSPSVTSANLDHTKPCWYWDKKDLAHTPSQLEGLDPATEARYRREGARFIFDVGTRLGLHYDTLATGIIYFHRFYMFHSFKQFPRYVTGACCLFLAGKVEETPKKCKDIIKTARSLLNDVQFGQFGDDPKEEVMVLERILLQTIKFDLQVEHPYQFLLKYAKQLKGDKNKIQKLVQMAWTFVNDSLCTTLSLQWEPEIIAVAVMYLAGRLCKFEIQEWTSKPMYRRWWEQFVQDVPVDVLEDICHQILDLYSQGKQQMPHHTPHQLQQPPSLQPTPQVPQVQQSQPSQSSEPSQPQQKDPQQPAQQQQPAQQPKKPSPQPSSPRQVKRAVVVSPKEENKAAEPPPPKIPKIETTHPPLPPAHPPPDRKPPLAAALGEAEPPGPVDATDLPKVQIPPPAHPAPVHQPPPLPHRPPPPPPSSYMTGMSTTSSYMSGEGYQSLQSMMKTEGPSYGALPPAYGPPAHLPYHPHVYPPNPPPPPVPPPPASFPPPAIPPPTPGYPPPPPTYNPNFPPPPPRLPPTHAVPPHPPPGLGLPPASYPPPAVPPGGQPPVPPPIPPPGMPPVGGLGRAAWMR
Sequence of CDK9/cyclinT1 complex (P50750 whole entry, species assumed): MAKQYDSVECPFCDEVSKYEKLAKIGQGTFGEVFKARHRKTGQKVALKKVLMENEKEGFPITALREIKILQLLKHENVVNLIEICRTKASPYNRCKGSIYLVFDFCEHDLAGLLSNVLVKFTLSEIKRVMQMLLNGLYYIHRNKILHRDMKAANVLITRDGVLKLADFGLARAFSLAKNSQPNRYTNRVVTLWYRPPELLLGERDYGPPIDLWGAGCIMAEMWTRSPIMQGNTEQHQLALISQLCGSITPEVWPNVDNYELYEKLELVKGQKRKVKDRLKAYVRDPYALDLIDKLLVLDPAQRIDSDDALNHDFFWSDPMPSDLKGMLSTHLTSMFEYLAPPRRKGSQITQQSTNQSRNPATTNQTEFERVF
Sequence of CDK9/cyclinT1 complex (O60563 whole entry partner, species assumed): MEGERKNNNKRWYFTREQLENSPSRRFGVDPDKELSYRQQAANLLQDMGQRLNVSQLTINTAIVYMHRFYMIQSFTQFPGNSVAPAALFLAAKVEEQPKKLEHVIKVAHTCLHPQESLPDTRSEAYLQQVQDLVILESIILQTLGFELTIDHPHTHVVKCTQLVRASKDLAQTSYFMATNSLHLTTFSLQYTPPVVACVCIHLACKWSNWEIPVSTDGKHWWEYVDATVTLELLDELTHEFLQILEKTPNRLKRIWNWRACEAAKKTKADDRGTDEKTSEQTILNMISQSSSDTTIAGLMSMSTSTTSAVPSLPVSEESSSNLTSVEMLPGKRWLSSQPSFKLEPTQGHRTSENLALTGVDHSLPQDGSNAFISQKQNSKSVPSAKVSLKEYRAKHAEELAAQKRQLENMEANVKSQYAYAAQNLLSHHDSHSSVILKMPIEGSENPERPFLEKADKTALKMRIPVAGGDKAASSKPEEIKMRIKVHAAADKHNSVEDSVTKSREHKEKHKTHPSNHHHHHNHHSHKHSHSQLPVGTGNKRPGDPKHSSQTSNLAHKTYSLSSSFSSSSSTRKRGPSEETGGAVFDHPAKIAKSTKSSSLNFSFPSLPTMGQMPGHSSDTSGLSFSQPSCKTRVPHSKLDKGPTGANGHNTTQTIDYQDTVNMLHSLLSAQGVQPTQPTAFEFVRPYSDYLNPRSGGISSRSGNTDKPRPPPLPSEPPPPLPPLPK
Sequence of CDK7/cyclinH/MAT1 complex (P50613 whole entry, species assumed): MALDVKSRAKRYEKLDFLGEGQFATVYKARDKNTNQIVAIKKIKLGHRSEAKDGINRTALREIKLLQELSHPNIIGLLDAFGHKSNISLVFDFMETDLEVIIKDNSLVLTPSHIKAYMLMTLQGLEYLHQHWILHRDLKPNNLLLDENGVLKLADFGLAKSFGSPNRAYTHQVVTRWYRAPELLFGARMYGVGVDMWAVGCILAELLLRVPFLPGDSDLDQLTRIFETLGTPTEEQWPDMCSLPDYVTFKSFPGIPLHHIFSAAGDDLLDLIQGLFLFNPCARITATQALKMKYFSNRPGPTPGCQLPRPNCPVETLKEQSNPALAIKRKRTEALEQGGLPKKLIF
Sequence of CDK7/cyclinH/MAT1 complex (P51946 whole entry partner, species assumed): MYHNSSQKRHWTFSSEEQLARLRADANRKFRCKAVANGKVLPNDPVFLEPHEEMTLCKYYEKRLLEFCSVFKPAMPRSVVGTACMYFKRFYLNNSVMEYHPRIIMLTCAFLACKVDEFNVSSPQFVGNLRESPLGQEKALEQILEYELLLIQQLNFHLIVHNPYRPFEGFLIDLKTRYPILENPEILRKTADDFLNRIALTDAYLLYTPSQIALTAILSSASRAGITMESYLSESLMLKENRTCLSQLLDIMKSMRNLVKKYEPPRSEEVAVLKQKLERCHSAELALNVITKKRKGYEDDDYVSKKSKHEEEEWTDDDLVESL
Sequence of CDK7/cyclinH/MAT1 complex (P51948 whole entry partner, species assumed): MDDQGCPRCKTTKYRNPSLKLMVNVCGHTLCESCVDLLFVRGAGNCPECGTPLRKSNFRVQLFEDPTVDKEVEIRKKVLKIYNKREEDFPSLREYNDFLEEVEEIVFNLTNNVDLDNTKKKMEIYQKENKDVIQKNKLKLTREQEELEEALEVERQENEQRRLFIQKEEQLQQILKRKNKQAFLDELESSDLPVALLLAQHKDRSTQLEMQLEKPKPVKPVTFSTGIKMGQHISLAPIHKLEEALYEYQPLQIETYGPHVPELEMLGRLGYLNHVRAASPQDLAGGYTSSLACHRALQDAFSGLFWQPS

IC50 [1] [nM] | IC50 (CDK2/cyclinE1 complex) [nM] | IC50 (CDK9/cyclinT1 complex) [nM] | IC50 [2, 3] [nM] | Compound | IC50 ([2]; CDK12 IC50, CDK12/cyclinK 50 nM) [nM]
20 to 200 |  |  |  | CP(C)(=O)c1cccc2c(-c3nc(N[C@@H]4CC(F)(F)C[C@@H]4O)ncc3C(F)(F)F)c[nH]c12 (relative stereo) [Compound 187, (3-(2-(cis-4,4-difluoro-2-hydroxycyclopentylamino)-5-(trifluoromethyl)pyrimidin-4-yl)-1H-indole-7-yl)dimethylphosphine oxide] | 
< 20 |  |  |  | CP(C)(=O)c1cccc2c(-c3nc(N[C@@H]4CC(F)(F)C[C@H]4O)ncc3C(F)(F)F)c[nH]c12 (relative stereo) [Compound 188, (3-(2-(trans-4,4-difluoro-2-hydroxycyclopentylamino)-5-(trifluoromethyl)pyrimidin-4-yl)-1H-indole-7-yl)dimethylphosphine oxide] | 
20 to 200 | > 50000 | > 50000 | > 50000 | CN(C)CC1CCCC1Nc1ncc(C(F)(F)F)c(-c2c[nH]c3c(P(C)(C)=O)cccc23)n1 (single isomer, unassigned) [Compound 136] | 
20 to 200 | 5000 to 50000 | > 50000 | > 50000 | CP(C)(=O)c1cccc2c(-c3nc(NCC(O)C4CCC4)ncc3C(F)(F)F)c[nH]c12 (single isomer, unassigned) [Compound 139] | 
20 to 200 | 5000 to 50000 | > 50000 | > 50000 | CP(C)(=O)c1cccc2c(-c3nc(NCC(O)C4CCC4)ncc3C(F)(F)F)c[nH]c12 (single isomer, unassigned) [Compound 140] | 
20 to 200 |  |  |  | C[C@@H](CO)Nc1ncc(C(F)(F)F)c(-c2c[nH]c3nc(C4CCCCO4)ccc23)n1 (single isomer, unassigned) [Compound 183] | 
20 to 200 |  |  |  | C[C@@H](CO)Nc1ncc(C(F)(F)F)c(-c2c[nH]c3nc(C4CCCCO4)ccc23)n1 (single isomer, unassigned) [Compound 184] | 
20 to 200 |  |  |  | CP(C)(=O)c1cccc2c(-c3nc(NC4CC(F)(F)CC4O)ncc3C(F)(F)F)c[nH]c12 (single isomer, unassigned) [Compound 189] | 
20 to 200 |  |  |  | CP(C)(=O)c1cccc2c(-c3nc(NC4CC(F)(F)CC4O)ncc3C(F)(F)F)c[nH]c12 (single isomer, unassigned) [Compound 190] | 
20 to 200 | 5000 to 50000 |  |  | CP(C)(=O)c1cccc2c(-c3nc(NC4CC(F)(F)CC4O)ncc3C(F)(F)F)c[nH]c12 (single isomer, unassigned) [Compound 192] | 
< 20 |  |  |  | CP(C)(=O)c1cccc2c(-c3nc(NC4CCC[C@H]4CN)ncc3C(F)(F)F)c[nH]c12 (stereo in doubt) [Compound 131, (3-(2-((cis-2-(aminomethyl)cyclopentyl)amino)-5-(trifluoromethyl)pyrimidin-4-yl)-1H-indole-7-yl)dimethylphosphine oxide] | 
< 20 |  |  |  | CP(C)(=O)c1cccc2c(-c3nc(NC4CCC[C@@H]4CN)ncc3C(F)(F)F)c[nH]c12 (stereo in doubt) [Compound 132, (3-(2-((trans-2-(aminomethyl)cyclopentyl)amino)-5-(trifluoromethyl)pyrimidin-4-yl)-1H-indole-7-yl)dimethylphosphine oxide] | 
< 20 |  |  |  | CN(C)C[C@@H]1CCCC1Nc1ncc(C(F)(F)F)c(-c2c[nH]c3c(P(C)(C)=O)cccc23)n1 (stereo in doubt) [Compound 133, (3-(2-((cis-2-((dimethylamino)methyl)cyclopentyl)amino)-5-(trifluoromethyl)pyrimidin-4-yl)-1H-indole-7-yl)dimethylphosphine oxide] | 
< 20 |  |  |  | CN(C)C[C@H]1CCCC1Nc1ncc(C(F)(F)F)c(-c2c[nH]c3c(P(C)(C)=O)cccc23)n1 (stereo in doubt) [Compound 134, (3-(2-((trans-2-((dimethylamino)methyl)cyclopentyl)amino)-5-(trifluoromethyl)pyrimidin-4-yl)-1H-indole-7-yl)dimethylphosphine oxide] | 
20 to 200 | 5000 to 50000 | 5000 to 50000 | 5000 to 50000 | FC(F)(F)c1cnc(NC2CCCC3(CCCN3)C2)nc1-c1c[nH]c2nc(N3CCOCC3)ccc12 (centres unmarked) [Compound 38, N-(4-(6-morpholinyl-1H-pyrrolo[2,3-b]pyridin-3-yl)-5-(trifluoromethyl)pyrimidin-2-yl)-1-azaspiro[4.5]decan-7-amine] | 
20 to 200 | 5000 to 50000 | 5000 to 50000 | 5000 to 50000 | FC(F)(F)c1cnc(NC2CCC3(CCNCC3)C2)nc1-c1c[nH]c2nc(N3CCOCC3)ccc12 (centres unmarked) [Compound 42, N-(4-(6-morpholinyl-1H-pyrrolo[2,3-b]pyridin-3-yl)-5-(trifluoromethyl)pyrimidin-2-yl)-8-azaspiro[4.5]decan-2-amine] | 
20 to 200 | 5000 to 50000 | 5000 to 50000 | 5000 to 50000 | FC(F)(F)c1cnc(N[C@@H]2CCC[C@@H]3CNC[C@@H]32)nc1-c1c[nH]c2nc(N3CCOCC3)ccc12 [Compound 45, (3aR,4R,7aS)-N-(4-(6-morpholinyl-1H-pyrrolo[2,3-b]pyridin-3-yl)-5-(trifluoromethyl)pyrimidin-2-yl)octahydro-1H-isoindole-4-amine] | 
20 to 200 |  |  |  | CP(C)(=O)c1cccc2c(-c3nc(NCC4(O)CCCCCC4)ncc3C(F)(F)F)c[nH]c12 [Compound 152] | 
20 to 200 |  |  |  | CP(C)(=O)c1cccc2c(-c3nc(N[C@H](CO)C4CCCCC4)ncc3C(F)(F)F)c[nH]c12 [Compound 169, (S)-(3-(2-((1-cyclohexyl-2-hydroxyethyl)amino)-5-(trifluoromethyl)pyrimidin-4-yl)-1H-indole-7-yl)dimethylphosphine oxide] | 
20 to 200 |  |  |  | CCCC[C@H](CO)Nc1ncc(C(F)(F)F)c(-c2c[nH]c3c(P(C)(C)=O)cccc23)n1 [Compound 170, (R)-(3-(2-((1-hydroxyhexan-2-yl)amino)-5-(trifluoromethyl)pyrimidin-4-yl)-1H-indole-7-yl)dimethylphosphine oxide] | 
20 to 200 |  |  |  | C[C@@H](CO)Nc1ncc(C(F)(F)F)c(-c2n[nH]c3c(P(C)(C)=O)cccc23)n1 [Compound 193, (S)-(3-(2-((1-hydroxypropan-2-yl)amino)-5-(trifluoromethyl)pyrimidin-4-yl)-1H-indazol-7-yl)dimethylphosphine oxide] | 
 |  |  |  | CN[C@@H]1C[C@H]2O[C@@](C)([C@@H]1OC)n1c3ccccc3c3c4c(c5c6ccccc6n2c5c31)C(=O)NC4 [Staurosporine, staurosporine, reference compound] | 200 to 5000
